Test results as given in patent US9434711B2 (Janssen Pharmaceutica, NV, priority 2007, dated 2016).
Where two headings read alike, the source gives them in different places. Blank lines part the entries; values can stand above or below the compound they belong to.

Experiments:
[1] = target: T1, canine TRPM8 (Canis lupus familiaris, UniProt Q1A7N1); assay: TRPM8 Patch Clamp Assays (whole-cell, menthol or cold activation); format: cell-based; conditions: cold stimulation
Experimental: For patch clamp experiments, HEK293 cells are stably transfected with canine TRPM8 and cultured in DMEM supplemented with 10% fetal bovine serum, 100 units/ml penicillin, 100 μg/ml streptomycin and 1 mg/ml G418. Cells are maintained at 37° C. and in 5% CO2.
The extracellular solution contains (in mM): NaCl, 132; EGTA, 1; KCl, 5.4; MgCl2, 0.8; HEPES, 10; glucose, 10; pH=7.4. Recordings are performed using the conventional whole-cell patch clamp technique, 1-2 days after plating cells onto glass coverslips at densities appropriate for single cell recording. Currents are amplified by a patch clamp amplifier and filtered at 2 kHz (Axopatch 200B, Molecular Devices, Union City, Calif.). Menthol (100 μM) is applied to the cell at 0.5 ml/min via a gravity-fed perfusion system. Recordings involving menthol activation are performed at 22° C.
In experiments where temperatures are varied, temperature ramps are generated by cooling the perfusate in an in-line cooler (Model SC-20, Warner Instruments, Hamden, Conn.) controlled by a temperature controller (Model CL-100, Warner Instruments). The temperature in the vicinity of the recorded cell is measured with a custom-made miniature thermo-microprobe connected to a monitoring thermometer (Model TH-8, Physitemp, Clifton, N.J.), and sampled using Digidata 1322A and pClamp 9.0 (Molecular Devices), as are the currents concurrently measured in the whole-cell patch clamp mode. The current is continuously sampled (at 100 Hz) at a holding potential of −60 mV.
Compounds of the formula (I) are diluted from 10 mM DMSO stocks (stored at −20° C.) into an extracellular solution either containing 100 μM menthol or subjected to cooling. Increasing concentrations of a compound are applied to a cell in a cumulative manner and concentration-dependent responses are measured after steady-state activation is achieved by either 100 μM menthol or cooling to 10° C. A saturating concentration of a reference antagonist is applied at the end of an experiment (either in the presence of 100 μM menthol or 10° C. temperature) to establish the baseline from which all the other measurements are subtracted.
Percentage inhibition by a compound is calculated as follows:
100×(1−Icomp/I0); where Icomp and I0 are steady-state current amplitudes in either the presence or absence of a concentration of compounds of the formula (I).

[2] = target: T1, canine TRPM8; assay: In Vitro Canine TRPM8 Functional Assay (Ca2+ fluorescence, icilin activation); format: cell-based; conditions: for inhibition at 0.2 µM / % Inh @ 0.2 (μM): compound at 0.2 μM; for inhibition at 0.2 µM: read-out: % Inh @ 0.2; for IC50: HEK293 cells stably expressing canine TRPM8, icilin activation, eight-point dose-response, read-out: IC50
In short: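 Eight-point dose-response curves, each point averaging quadruplicate wells, gave EC50 or IC50. Canine TRPM8-expressing HEK293 cells, dye-loaded (Calcium 3), were pre-exposed 5 min to compound, then challenged with icilin at roughly EC80; intracellular Ca2+ read by FLIPR or FDSS fluorescence.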

[3] = system: Male Sprague Dawley rats; assay: Chronic Constriction Injury (CCI)-Induced Model of Neuropathic Pain, Acetone-Induced Hypersensitivity; format: in vivo, rat; conditions: Rattus norvegicus, po, Na salt form; for inhibition in vivo at 30 mg/kg: 30 mg/kg p.o.; for inhibition in vivo at 10 mg/kg: 10 mg/kg p.o.
Text: Male Sprague Dawley rats (225-450 g; n=5-8/treatment) were used to evaluate the ability of selected compounds of the formula (I) to reverse CCI-induced cold hypersensitivity. Four loose ligatures of 4-0 chromic gut were surgically placed around the left sciatic nerve under inhalation anesthesia as described by Bennett et al (Bennett G J, Xie Y K. Pain 1988, 33(1): 87-107). Fourteen to 35 days following CCI surgery, subjects were placed in elevated observation chambers containing wire mesh floors and five applications of acetone (0.05 mL/application separated by approximately 5 minutes) were spritzed onto the plantar surface of the paw using a multidose syringe. An abrupt withdrawal or lifting of the paw was considered a positive response. The number of positive responses was recorded for each rat over the five trials. Following baseline withdrawal determinations, compounds of formula (I) are administered in an appropriate vehicle, such as hydroxypropyl-β-cyclodextrin (HP β CD), methylcellulose, Methocel, 10% Solutol, or H2O, or the like, by the appropriate route, i.p. or p.o. […] Results are presented as a percent inhibition of […], which was calculated for each subject as [1−(test compound withdrawals/pre-test withdrawals)]×100 and then averaged by treatment.

[4] = system: Male Sprague Dawley rats; assay: Inhibition of Icilin-Induced "Wet-Dog" Shakes in Rats; format: in vivo, rat; conditions: HPbCD, Na salt form
Experimental: Male Sprague Dawley rats (220-450 g, Charles River Labs, n=6-9/treatment) were used to evaluate the ability of selected compounds of the formula (I) to block icilin-induced “wet-dog” shakes (WDS). Compounds of the formula (I) were administered in an appropriate vehicle, such as hydroxypropyl-β-cyclodextrin (HPβCD), methocellulose, 10% Solutol, or H2O, or the like, by the appropriate route, i.p. or p.o., 30-120 minutes before icilin. Icilin was administered in PEG-400 or 10% solutol/H2O, at 1.0 or 3.0 mg/kg, i.p. and spontaneous “wet-dog” shakes were counted 10-20 minutes post-icilin. Results are presented as a percent inhibition of shakes, which was calculated as [1-(test compound WDS count/vehicle WDS count)]×100.

[5] = canine TRPM8, icilin activation
[6] = 3 h, Water, pretreatment 3 hr, read-out: Percent Inhibition
[7] = 4 h, Water, pretreatment 4 hr, read-out: Percent Inhibition
[8] = dose 30 p.o., 30 min pre-icilin
[9] = dose 30 p.o., 60 min pre-icilin
[10] = 3 h, HPbCD, pretreatment 3 hr, read-out: Percent Inhibition

T1 sequence (Q1A7N1 1-1104): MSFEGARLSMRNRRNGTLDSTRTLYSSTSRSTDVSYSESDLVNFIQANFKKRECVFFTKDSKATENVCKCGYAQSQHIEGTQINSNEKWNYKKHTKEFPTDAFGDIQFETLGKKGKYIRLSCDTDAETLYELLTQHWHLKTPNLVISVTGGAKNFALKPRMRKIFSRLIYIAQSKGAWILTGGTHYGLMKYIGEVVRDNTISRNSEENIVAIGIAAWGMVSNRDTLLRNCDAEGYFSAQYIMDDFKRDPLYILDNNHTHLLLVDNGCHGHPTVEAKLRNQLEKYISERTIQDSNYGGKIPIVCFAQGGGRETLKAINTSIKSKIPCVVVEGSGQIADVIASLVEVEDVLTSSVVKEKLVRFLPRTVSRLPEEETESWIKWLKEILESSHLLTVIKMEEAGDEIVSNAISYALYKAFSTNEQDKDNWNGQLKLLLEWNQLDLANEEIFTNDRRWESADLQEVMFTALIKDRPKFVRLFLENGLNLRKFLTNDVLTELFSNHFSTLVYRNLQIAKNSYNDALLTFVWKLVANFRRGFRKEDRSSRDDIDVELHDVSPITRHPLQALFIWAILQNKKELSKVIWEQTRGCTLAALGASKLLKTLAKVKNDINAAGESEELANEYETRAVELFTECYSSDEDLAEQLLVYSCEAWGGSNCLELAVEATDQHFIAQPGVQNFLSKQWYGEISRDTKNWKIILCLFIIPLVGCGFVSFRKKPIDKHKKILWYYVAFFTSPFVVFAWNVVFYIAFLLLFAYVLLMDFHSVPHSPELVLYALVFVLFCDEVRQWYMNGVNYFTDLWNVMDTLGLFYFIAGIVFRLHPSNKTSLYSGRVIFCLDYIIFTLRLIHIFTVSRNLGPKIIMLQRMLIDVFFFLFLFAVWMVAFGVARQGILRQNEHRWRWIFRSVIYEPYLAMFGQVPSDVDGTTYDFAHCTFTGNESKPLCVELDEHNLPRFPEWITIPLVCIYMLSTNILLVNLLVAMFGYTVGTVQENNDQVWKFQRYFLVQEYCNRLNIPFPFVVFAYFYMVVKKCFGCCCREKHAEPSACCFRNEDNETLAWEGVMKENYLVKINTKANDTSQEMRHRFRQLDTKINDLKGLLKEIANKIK

IC50 [1]: 8 nM
inhibition at 0.003 µM ([1]; 0.003 μM): 24%
inhibition at 0.01 µM ([1]; 0.01 μM): 71%
inhibition at 0.2 µM [2, 5]: 15%
SMILES: CCS(=O)(=O)N(CCN1CCOCC1)c1sc2ccccc2c1C(C)O (stereo not shown) [Compound 284, N-(3-(1-Hydroxyethyl)benzo[b]thiophen-2-yl)-N-(2-morpholinoethyl)-ethanesulfonamide]

IC50 [2]: 0.8 nM
inhibition at 0.2 µM [2, 5]: 98%
inhibition at 0.5 µM ([2]; compound at 0.5 μM, canine TRPM8, icilin activation, read-out: % Inh @ 0.5): 100%
SMILES: O=C(O)c1ccc(S(=O)(=O)N(Cc2ccc(F)c(C(F)(F)F)c2)c2sc3ccccc3c2Br)cc1 [Compound 292, N-(3-Bromo-benzo[b]thiophen-2-yl)-N-(4-fluoro-3-trifluoromethyl-benzyl)-4-carboxy-benzenesulfonamide]
inhibition in vivo at 30 mg/kg ([3]; 2 h, Water, pretreatment 2 hr, read-out: Percent Inhibition): 60%
inhibition in vivo at 3 mg/kg ([3]; 3 h, 3 mg/kg p.o., Water, pretreatment 3 hr, read-out: Percent Inhibition): 7%
inhibition in vivo at 10 mg/kg [3, 6]: 16%
inhibition in vivo at 30 mg/kg [3, 6]: 21%
inhibition in vivo at 100 mg/kg ([3]; 3 h, 100 mg/kg p.o., Water, pretreatment 3 hr, read-out: Percent Inhibition): 67%
ED50 ([3]; Water, pretreatment 3 hr): 70 mg/kg

IC50 [2]: 5 nM
inhibition at 0.2 µM [2, 5]: 101%
SMILES: O=C(O)c1ccc(S(=O)(=O)N(CCC2CC2)c2sc3ccccc3c2Br)cc1 [Compound 396, N-(3-Bromo-benzo[b]thiophen-2-yl)-N-(2-cyclopropylethyl)-4-carboxy-benzenesulfonamide]
inhibition in vivo at 30 mg/kg [3, 7]: 50%

SMILES: CCCCN(c1sc2ccccc2c1C)S(=O)(=O)c1ccc(C(=O)[O-])cc1.[Na+] [Compound 398, Sodium, N-(Butyl)-N-(3-methylbenzo[b]thiophen-2-yl)-4-carboxy-benzenesulfonamide]
% Inhibition [4, 8]: 7%
IC50 [2]: 6 nM
% Inh @ 0.2 (μM) [2, 5]: 101%

SMILES: Cc1c(N(CCC(F)(F)F)S(=O)(=O)c2ccc(C(=O)[O-])cc2)sc2ccccc12.[Na+] [Compound 409, Sodium, N-(3-Methylbenzo[b]thiophen-2-yl)-N-(3,3,3-trifluoro-propyl)-4-carboxy-benzenesulfonamide]
% Inhibition [4, 8]: 16%
IC50 [2]: 10 nM
% Inh @ 0.2 (μM) [2, 5]: 101%

SMILES: O=S(=O)(c1ccc(-c2nnn[nH]2)cc1)N(CCCC(F)(F)F)c1sc2ccccc2c1Br [Compound 429]
% Inhibition [4, 8]: 41%
% Inhibition [4, 9]: 36%
IC50 [2]: 17 nM
% Inh @ 0.2 (μM) [2, 5]: 93%

SMILES: O=C(O)c1ccc(S(=O)(=O)N(CCC2CC2)c2sc3ccccc3c2Cl)cc1 [Compound 479]
% Inhibition [4, 9]: 77%
IC50 [2]: 8 nM
% Inh @ 0.2 (μM) [2, 5]: 100%

IC50 [2]: 2 nM
inhibition at 0.2 µM [2, 5]: 101%
SMILES: Cc1c(N(Cc2ccc(F)cc2)S(=O)(=O)c2ccc(C(=O)O)cc2)sc2ccccc12 [Compound 487, N-(3-Methyl-benzo[b]thiophen-2-yl)-N-(4-fluoro-benzyl)-4-carboxy-benzenesulfonamide]
inhibition in vivo at 10 mg/kg [3, 10]: 43%
inhibition in vivo at 30 mg/kg [3, 10]: 66%

IC50 [2]: 1 nM
inhibition at 0.2 µM [2, 5]: 101%
SMILES: Cc1c(N(Cc2ccc(F)c(F)c2)S(=O)(=O)c2ccc(C(=O)O)cc2)sc2ccccc12 [Compound 488, N-(3-Methyl-benzo[b]thiophen-2-yl)-N-(3,4-difluoro-benzyl)-4-carboxy-benzenesulfonamide]
inhibition in vivo at 30 mg/kg ([3]; 2 h, HPbCD, pretreatment 2 hr, read-out: Percent Inhibition): 43%

IC50 [2]: 0.6 nM
inhibition at 0.2 µM [2, 5]: 101%
SMILES: Cc1c(N(Cc2ccc(F)c(Cl)c2)S(=O)(=O)c2ccc(C(=O)O)cc2)sc2ccccc12 [Compound 489, N-(3-Methyl-benzo[b]thiophen-2-yl)-N-(4-fluoro-3-chloro-benzyl)-4-carboxy-benzenesulfonamide]
inhibition in vivo at 30 mg/kg [3, 6]: 86%
inhibition in vivo at 10 mg/kg [3, 7]: 13%
inhibition in vivo at 17.8 mg/kg ([3]; 4 h, 17.8 mg/kg p.o., Water, pretreatment 4 hr, read-out: Percent Inhibition): 60%
inhibition in vivo at 30 mg/kg [3, 7]: 57%
inhibition in vivo at 56 mg/kg ([3]; 4 h, 56 mg/kg p.o., Water, pretreatment 4 hr, read-out: Percent Inhibition): 70%
ED50 ([3]; Water, pretreatment 4 hr): 23 mg/kg

IC50 [2]: 1 nM
inhibition at 0.2 µM [2, 5]: 101%
SMILES: Cc1c(N(Cc2ccc(OC(F)F)cc2)S(=O)(=O)c2ccc(C(=O)O)cc2)sc2ccccc12 [Compound 490, N-(3-Methyl-benzo[b]thiophen-2-yl)-N-(4-difluoromethoxy-benzyl)-4-carboxy-benzenesulfonamide]
inhibition in vivo at 30 mg/kg ([3]; 1 h, HPbCD, pretreatment 1 hr, read-out: Percent Inhibition): 23%

IC50 [2]: 0.4 nM
inhibition at 0.2 µM [2, 5]: 101%
SMILES: Cc1c(N(Cc2ccc(C(F)(F)F)c(F)c2)S(=O)(=O)c2ccc(C(=O)O)cc2)sc2ccccc12 [Compound 497, N-(3-Methyl-benzo[b]thiophen-2-yl)-N-(3-fluoro-4-trifluoromethyl-benzyl)-4-carboxy-benzenesulfonamide]
inhibition in vivo at 30 mg/kg [3, 7]: 60%

inhibition at 0.2 µM [2, 5]: 102%
SMILES: Cc1c(N(Cc2ccc3c(c2)OC(F)(F)O3)S(=O)(=O)c2ccc(C(=O)O)cc2)sc2ccccc12 [Compound 524, N-(3-Methyl-benzo[b]thiophen-2-yl)-N—(C-(2,2-difluoro-benzo[1,3]dioxol-5-yl)-methyl)-4-carboxy-benzenesulfonamide]
inhibition in vivo at 30 mg/kg [3, 10]: 46%

SMILES: CC(C)(O)c1c(N(CCC2CC2)S(=O)(=O)c2ccc(C(=O)[O-])cc2)sc2ccccc12.[Na+] [Compound 657, Sodium, N-(2-Cyclopropyl-ethyl)-N-(3-(1-hydroxy-1-methyl-ethyl)-benzo[b]thiophen-2-yl)-4-carboxy-benzenesulfonamide]
% Inhibition ([4]; dose 10 p.o., 60 min pre-icilin): 32%
IC50 [2]: 7.5 nM
% Inh @ 0.2 (μM) [2, 5]: 101%
